# In BindingDB's records for doi:10.1016/j.bmc.2019.115207 (Tokyo Institute of Innovative Research, 2020):
# Molecular target: Hypoxia-inducible factor 1-alpha (Homo sapiens, UniProt Q16665)
# Test: Inhibition of HIF1alpha transcriptional activity in human HeLa cells transfected with HRE-firefly luciferase and cytomegalovirus-promoter expressing Renilla luciferase incubated for 12 hrs under 1% O2 condition by dual luciferase reporter gene assay
# Chain of Hypoxia-inducible factor 1-alpha (Q16665 whole entry): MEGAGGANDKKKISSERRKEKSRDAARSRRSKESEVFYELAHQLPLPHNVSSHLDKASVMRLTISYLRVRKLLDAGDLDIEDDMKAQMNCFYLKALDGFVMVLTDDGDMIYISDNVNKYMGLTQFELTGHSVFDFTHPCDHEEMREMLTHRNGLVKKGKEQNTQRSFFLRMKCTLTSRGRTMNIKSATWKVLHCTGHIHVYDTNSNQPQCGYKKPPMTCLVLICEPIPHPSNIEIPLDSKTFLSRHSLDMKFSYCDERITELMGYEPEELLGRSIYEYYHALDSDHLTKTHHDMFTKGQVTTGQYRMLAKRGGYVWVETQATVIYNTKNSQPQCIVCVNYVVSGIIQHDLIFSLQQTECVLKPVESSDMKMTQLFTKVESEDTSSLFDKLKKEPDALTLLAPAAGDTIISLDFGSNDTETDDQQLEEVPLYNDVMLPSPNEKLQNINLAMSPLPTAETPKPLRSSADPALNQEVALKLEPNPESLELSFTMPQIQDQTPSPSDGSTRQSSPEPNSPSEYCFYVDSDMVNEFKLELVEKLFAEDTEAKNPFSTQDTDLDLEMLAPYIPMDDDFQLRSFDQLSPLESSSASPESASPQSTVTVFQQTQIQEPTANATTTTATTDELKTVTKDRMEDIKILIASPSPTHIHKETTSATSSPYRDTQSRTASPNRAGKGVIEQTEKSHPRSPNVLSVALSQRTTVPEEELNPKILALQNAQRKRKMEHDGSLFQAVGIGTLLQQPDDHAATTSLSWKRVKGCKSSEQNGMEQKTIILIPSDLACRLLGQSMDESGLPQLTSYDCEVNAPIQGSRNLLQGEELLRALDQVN
row,Structure (SMILES),IC50
1,O=C1c2ccccc2-c2cn[nH]c21,> 30 µM
2,Cn1ncc2c1C(=O)c1ccccc1-2,8.8 µM
3,Cc1nn(-c2ccccc2)c2c1-c1ccccc1C2=O,4.8 µM
4,O=C1c2ccccc2-c2cnn(-c3ccc(C(F)(F)F)cc3)c21,23 µM
5,COc1ccc(-n2ncc3c2C(=O)c2ccccc2-3)cc1,0.61 µM

# Now from value to compound:
row,IC50,Structure (SMILES)
1,0.39 µM,O=C1c2ccccc2-c2cnn(-c3ccc(O)cc3)c21
2,0.79 µM,Cc1ccc(-n2ncc3c2C(=O)c2ccccc2-3)cc1
3,10 µM,O=C1c2ncccc2-c2cnn(-c3ccccc3)c21
4,1.4 µM,O=C1c2ccccc2-c2cnn(-c3ccccc3)c21
